In test [1] the test system is diarrhea. The settings on record: rats, literature (Fittkau et al. 2004); cited from earlier work.
Test [2] deals with E. coli β-glucuronidase (Escherichia coli, UniProt P05804). It counts as biochemical. Further details: The full-length E. coli β-glucuronidase gene was obtained from bacterial genomic DNA; 6xHis (N); made in house; host or cells: E. coli BL21-DE3. The conditions noted are these: in vitro, using PNPG. From the text:
(§1) Thus, two other β-glucuronidase activity assays were employed to examine the potency of inhibitors both in vitro and in cell-based studies. An absorbance assay based on the conversion of p-nitrophenyl glucuronide (PNPG) to p-nitrophenol (PNP) (Szasz (1967) Clin Chem 13:752-759), which absorbs at 410 nm, was employed as the primary in vitro assay (FIG. 9). A secondary assay involving the conversion of phenolphthalein glucuronide (PheG) to phenolphthalein (Phe), which absorbs at 540 nm, was also employed (FIG. 9). Id.
In vitro assays were conducted at 50 μL total volume in 96-well, clear bottom assay plates (Costar). Substrates consisted of PNPG or PheG (FIG. 9) and were acquired from Sigma. The presence of the hydrolysis product of each, PNP or Phe, was measured by absorbance at 410 nm or 540 nm, respectively. […] Absorbance was measured using a PHERAstar Plus microplate reader (BMG Labtech).
In vitro assays were conducted at 50 μL total volume in 96-well, clear bottom assay plates (Costar). […] The presence of the hydrolysis product of each, p-nitrophenol (PNP) and phenolphthalein (Phe), was measured by absorbance at 410 nm or 540 nm, respectively. […] Absorbance was measured using a PHERAstar Plus microplate reader (BMG Labtech). Data acquired was analyzed using Microsoft Excel and Sigmaplot 11.0.

Test [3] addresses β-glucuronidase activity in living E. coli cells (Escherichia coli, UniProt P05804). It counts as cell-based. Further details: The full-length E. coli β-glucuronidase gene was obtained from bacterial genomic DNA; expressed in transfected cells; host or cells: E. coli HB101 transformed with pET-28a-GUS.
Description: as §1
HB101 E. coli cells were grown to an OD600 of 0.6 in LB medium. These cells were then used for an in vivo assay. Reaction time and temperature were the same as previously described (see In Vitro β-Glucuronidase Assays). […] Absorbance was measured at the appropriate wavelength, depending on the substrate. […]
HB101 E. coli cells, transformed with the pET-28a vector containing the β-Glucuronidase gene, were grown to an OD600 of 0.6 in LB medium. […] Absorbance was measured at the appropriate wavelength, either 410 nm or 540 nm. Cell survivability in the presence of the nine inhibitors was assessed by plating a 10^−5 dilution of 200 μl of saturated cells after incubation with 100 μM of each inhibitor for 6 hours. […] Plated cells were allowed to incubate at 37° C. overnight, and colonies were counted to quantify the viability of the cells.

Broadly, the IC50 is the concentration at which inhibition is half-maximal. Lower therefore signals higher potency.

Chain of E. coli β-glucuronidase (P05804 whole entry): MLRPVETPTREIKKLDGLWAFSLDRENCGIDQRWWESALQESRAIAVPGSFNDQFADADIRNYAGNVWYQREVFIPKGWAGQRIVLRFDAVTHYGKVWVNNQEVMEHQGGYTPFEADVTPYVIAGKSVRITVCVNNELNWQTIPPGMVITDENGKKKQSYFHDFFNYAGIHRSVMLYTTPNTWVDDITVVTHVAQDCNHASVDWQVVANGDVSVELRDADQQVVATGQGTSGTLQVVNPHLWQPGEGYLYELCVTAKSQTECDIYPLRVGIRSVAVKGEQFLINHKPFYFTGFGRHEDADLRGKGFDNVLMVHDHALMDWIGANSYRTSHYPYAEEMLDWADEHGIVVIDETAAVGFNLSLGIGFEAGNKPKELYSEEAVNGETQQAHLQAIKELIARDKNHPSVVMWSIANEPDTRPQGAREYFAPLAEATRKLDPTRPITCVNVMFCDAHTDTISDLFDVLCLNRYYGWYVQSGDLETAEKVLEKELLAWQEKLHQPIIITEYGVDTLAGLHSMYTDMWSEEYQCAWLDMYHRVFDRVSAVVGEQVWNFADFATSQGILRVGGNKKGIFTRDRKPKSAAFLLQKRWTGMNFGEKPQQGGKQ
Chain of β-glucuronidase activity in living E. coli cells (P05804 whole entry): as above

As for `O=C1OC(C(O)C(=O)O)C(O)C1O` (stereo not drawn) [saccharic acid 1,4-lactone], the “reversal of CPT-11 diarrhea / epithelial cell death” value in test [1] is recorded as “partially reversed”.

As for `O=C(O)[C@H]1NC(=O)[C@H](O)[C@@H](O)[C@@H]1O` [GDL, glucaro-δ-lactam, reference compound], half-maximal inhibition in test [2] (IC50) was put at 45 ± 3.1 µM. For the same compound, the “efficacy in living cells” value in test [3] is “ineffective”.

Values taken from patent US9334288B2, “Selective β-glucuronidase inhibitors as a treatment for side effects of camptothecin antineoplastic agents” (The University of North Carolina at Chapel Hill, priority 2009, dated 2016).
